Results from publication PMC4086519, “Anti-Trichophyton Activity of Protocatechuates and Their Synergism with Fluconazole” (Evidence-based Complementary and Alternative Medicine : eCAM, 2014).
Values after ≈ are worked out from the molar mass of the structure shown. Where two headings read alike, the source gives them in different places.

What was measured:
Assay type in all cases: cell-based
Trichophyton rubrum [1] = assay: Broth microdilution MIC (CLSI M38-A2, modified); details: 35°C, 7 days
Procedure: (§1) To evaluate its antifungal activity, […] of dermatophytes were tested: two clinical strains of Trichophyton rubrum (Tr1 and Tr2), Trichophyton rubrum ATCC MYA 3108, two clinical strains of Trichophyton mentagrophytes (Tm1 and Tm2), and Trichophyton mentagrophytes ATCC 40131 (Tm3). The microorganisms were obtained from the collection of the Clinical Mycology Laboratory of the Department of Clinical Analyses at the School of Pharmaceutical Sciences of Universidade Estadual Paulista (UNESP). The strains were cultivated on Sabouraud dextrose agar (Difco, BD Biosciences) and incubated at 28°C for 7-15 days. For all experiments, the strains were cultivated on Potato Dextrose Agar (Difco, BD Biosciences) and incubated at 28°C as described above or until sporulation. The dilution of the synthetic compounds was performed with DMSO (Synth, Diadema, Sao Paulo, Brazil) as described by Scorzoni et al.. […] The antifungal drugs were diluted according to the CLSI […]-A2 document. Stock solutions of Fluconazole (Sigma-Aldrich, St. Louis, MO, USA) were prepared, considering its power. Serial twofold dilutions were prepared according to the recommendations of Zhang and collaborators, with some modifications. The antifungal activity tests were performed using the broth microdilution method as described in […]-A2, a document produced by the Clinical and Laboratory Standards Institute (CLSI, 2008), with modifications. The medium used was RPMI 1640 with L-glutamine (Sigma-Aldrich, St. Louis, MO, USA) buffered to pH 7.0 with 0.165 M morpholinepropanesulfonic acid (MOPS) (Sigma-Aldrich, St. Louis, MO, USA), supplemented with 2% glucose. […] The suspension of conidia was then transferred to small sterile test tubes where they remained for 40 minutes to separate the microconidia, which were lighter and therefore present in the supernatant. […] These suspensions were diluted in RPMI 1640 (Sigma-Aldrich, St. […] Positive (100 μL of RPMI medium with 100 μL of inoculum) and negative (200 μL of RPMI) controls were included in all experiments. The plates were incubated with agitation at 35°C for 7 days. The MIC reading was performed by spectrophotometry at 490 nm.

[2] = test system: Trichophyton mentagrophytes; assay: Broth microdilution MIC (CLSI M38-A2, modified); details: 35°C, 7 days
Procedure: as §1

Trichophyton rubrum [3] = assay: Minimum fungicide concentration (MFC)
Procedure: (§2) A qualitative analysis of the fungal viability was performed by transferring a portion of the wells to a plate with Sabouraud (Difco, BD Biosciences) medium and incubating it at 35°C for the time determined for each fungal agent. […] A visual reading was performed to confirm the death or growth inhibition provided by fluconazole and the sixteen semisynthetic substances derived from protocatechuic acid.

[4] = test system: Trichophyton mentagrophytes; assay: Minimum fungicide concentration (MFC)
Procedure: as §2

Trichophyton rubrum [5] = assay: Checkerboard synergism assay with fluconazole
Procedure: (§3) The drug activity was assessed using a checkerboard method derived from a standardised procedure established by the National Committee for Clinical Laboratory Standards ([…]-A2). Briefly, the test was performed on the same medium used for susceptibility testing. Volumes of 50 μL of each drug in a concentration four times the final concentration were dispensed in 96-well plates ([…], Switzerland). To each well, 100 μL of the fungal suspension was added to produce a final concentration of 5.0 × 10^3 CFU/mL. As a negative control, we used 200 μL of RPMI, while as a positive control, we used 100 μL of RPMI medium with 100 μL of inoculum. The plates were incubated at 35°C, and the reading was completed after 168 hours. We conducted visual and spectrophotometric readings at 490 nm. To determine the effect of combinatorial fractions, we calculated the fractional inhibitory concentration (FIC). The FIC was calculated by taking the MIC of the substance in combination/MIC of the substance alone. The sum of the fractional inhibitory concentration (FIC) of each substance consists of the fractional inhibitory concentration index: (the MIC of drug A in combination/the MIC of drug A alone) + (the MIC of drug B in combination/the MIC of drug B alone).

[6] = test system: Trichophyton mentagrophytes; assay: Checkerboard synergism assay with fluconazole; details: for MIC, substances alone: checkerboard, 168 hours
Procedure: as §3

[7] = test system: NOK (oral human keratinocyte) cell lines; assay: Sulphorhodamine B cytotoxicity assay; details: NOK cells, 24 hours
Procedure: The cytotoxicity of sixteen semisynthetic compounds derived from protocatechuic acid was assessed using a sulphorhodamine B assay in NOK (oral human keratinocyte) cell lines obtained from the American Type Culture Collection (Manassas, VA, USA). The strains were maintained in bottles appropriate for cell culture with keratinocyte serum free medium (Gibco, Life Technologies) and incubated in standard conditions of 37°C and 5% CO2. Cell concentrations ranging from 2.5 to 5.0 × 10^4 cells/mL were used for the formation of cell monolayers. The concentrations of pure substances were kept in contact with the cells for 24 hours. After the incubation period, the cells were treated with the sulphorhodamine B reagent (Sigma-Aldrich, St. Louis, MO, USA) as previously described by Skehan et al., with some modifications.

[8] = Tr1, T. rubrum clinical isolate
[9] = Tr2, T. rubrum clinical isolate
[10] = Tm3, T. mentagrophytes ATCC 40131

SMILES | MIC (Trichophyton rubrum [1]; [8]) | MIC (Trichophyton rubrum [1]; [9]) | MIC (Trichophyton rubrum [1]; Tr3, T. rubrum ATCC MYA 3108) | MIC ([2]; Tm1, clinical isolate) | MIC ([2]; Tm2, clinical isolate) | MIC [2, 10] | MFC (Trichophyton rubrum [3]; [8]) | MFC (Trichophyton rubrum [3]; [9]) | MFC (Trichophyton rubrum [3]; Tr3, T. rubrum ATCC MYA 3108) | MFC ([4]; Tm1, clinical isolate) | MFC ([4]; Tm2, clinical isolate) | MFC [4, 10] | other results
CCOC(=O)c1ccc(O)c(O)c1 [Protocatechuate ethyl] | 31.2 mg/L (≈ 171 µM) | 31.2 mg/L (≈ 171 µM) | 31.2 mg/L (≈ 171 µM) | 31.2 mg/L (≈ 171 µM) | 31.2 mg/L (≈ 171 µM) | 31.2 mg/L (≈ 171 µM) | 31.2 mg/L (≈ 171 µM) | 31.2 mg/L (≈ 171 µM) | 31.2 mg/L (≈ 171 µM) | 62.5 mg/L (≈ 343 µM) | 31.2 mg/L (≈ 171 µM) | 125 mg/L (≈ 686 µM) | 
CCCCCCCOC(=O)c1ccc(O)c(O)c1 [Protocatechuate heptyl, protocatechuate heptyl] | 1.95 mg/L (≈ 7.73 µM) | 1.95 mg/L (≈ 7.73 µM) | 1.95 mg/L (≈ 7.73 µM) | 3.9 mg/L (≈ 15.5 µM) | 0.97 mg/L (≈ 3.84 µM) | 3.9 mg/L (≈ 15.5 µM) | 1.95 mg/L (≈ 7.73 µM) | 1.95 mg/L (≈ 7.73 µM) | 1.95 mg/L (≈ 7.73 µM) | 3.9 mg/L (≈ 15.5 µM) | 0.97 mg/L (≈ 3.84 µM) | 3.9 mg/L (≈ 15.5 µM) | FIC index (Trichophyton rubrum [5]): 1.0; association type (in words) (Trichophyton rubrum [5]): additive; MIC, substances alone (Trichophyton rubrum [5]; Tr1, checkerboard, 168 hours): 1.9 mg/L; MIC of the protocatechuate, substances combined [6]: 0.03 mg/L; association type (in words) [6]: synergistic; reduction in the MIC of fluconazole [6]: fourfold; MIC, substances alone ([6]; Tm1): 3.9 mg/L; MIC, substances alone ([6]; Tm3 (ATCC 40131)): 3.9 mg/L; FIC index ([6]; listed as 9): 0.48; reduction in the MIC of fluconazole ([6]; listed as 9): four-; Cytotoxicity IC50 [7]: 78.1 mg/L
CCCCCCCCCCCCCCCCOC(=O)c1ccc(O)c(O)c1 [Protocatechuate hexadecyl] | > 250 mg/L | > 250 mg/L | > 250 mg/L | > 250 mg/L | > 250 mg/L | > 250 mg/L | > 250 mg/L | > 250 mg/L | > 250 mg/L | > 250 mg/L | > 250 mg/L | > 250 mg/L | 
COC(=O)c1ccc(O)c(O)c1 [Protocatechuate methyl] | 62.5 mg/L (≈ 372 µM) | 31.2 mg/L (≈ 186 µM) | 31.2 mg/L (≈ 186 µM) | 62.5 mg/L (≈ 372 µM) | 62.5 mg/L (≈ 372 µM) | 31.2 mg/L (≈ 186 µM) | 62.5 mg/L (≈ 372 µM) | 31.2 mg/L (≈ 186 µM) | 62.5 mg/L (≈ 372 µM) | 250 mg/L (≈ 1490 µM) | 62.5 mg/L (≈ 372 µM) | 62.5 mg/L (≈ 372 µM) | 
CCCCCCCCCCCCCCCCCCOC(=O)c1ccc(O)c(O)c1 [Protocatechuate octadecyl] | > 250 mg/L | > 250 mg/L | > 250 mg/L | > 250 mg/L | > 250 mg/L | > 250 mg/L | > 250 mg/L | > 250 mg/L | > 250 mg/L | > 250 mg/L | > 250 mg/L | > 250 mg/L | 
CCCOC(=O)c1ccc(O)c(O)c1 [Protocatechuate propyl] | 15.6 mg/L (≈ 79.5 µM) | 31.2 mg/L (≈ 159 µM) | 31.2 mg/L (≈ 159 µM) | 15.6 mg/L (≈ 79.5 µM) | 62.5 mg/L (≈ 319 µM) | 15.6 mg/L (≈ 79.5 µM) | 15.6 mg/L (≈ 79.5 µM) | 31.2 mg/L (≈ 159 µM) | 31.2 mg/L (≈ 159 µM) | 62.5 mg/L (≈ 319 µM) | 62.5 mg/L (≈ 319 µM) | 31.2 mg/L (≈ 159 µM) | 
CCCCCCCCCCCCCCOC(=O)c1ccc(O)c(O)c1 [Protocatechuate tetradecyl] | > 250 mg/L | 125 mg/L (≈ 357 µM) | > 250 mg/L | > 250 mg/L | 125 mg/L (≈ 357 µM) | > 250 mg/L | > 250 mg/L | 125 mg/L (≈ 357 µM) | > 250 mg/L | > 250 mg/L | 250 mg/L (≈ 713 µM) | > 250 mg/L | 
